# Experimental data reported in ChEMBL document CHEMBL1132393, “Structure-activity relationships of a novel class of Src SH2 inhibitors” (Bioorg Med Chem Lett, 1999).
# Target: Proto-oncogene tyrosine-protein kinase Src (Homo sapiens, UniProt P12931)
# Assay: Binding affinity against Src-homology 2 (SRC SH2).
# Proto-oncogene tyrosine-protein kinase Src, sequence (P12931 2-536 limits assumed): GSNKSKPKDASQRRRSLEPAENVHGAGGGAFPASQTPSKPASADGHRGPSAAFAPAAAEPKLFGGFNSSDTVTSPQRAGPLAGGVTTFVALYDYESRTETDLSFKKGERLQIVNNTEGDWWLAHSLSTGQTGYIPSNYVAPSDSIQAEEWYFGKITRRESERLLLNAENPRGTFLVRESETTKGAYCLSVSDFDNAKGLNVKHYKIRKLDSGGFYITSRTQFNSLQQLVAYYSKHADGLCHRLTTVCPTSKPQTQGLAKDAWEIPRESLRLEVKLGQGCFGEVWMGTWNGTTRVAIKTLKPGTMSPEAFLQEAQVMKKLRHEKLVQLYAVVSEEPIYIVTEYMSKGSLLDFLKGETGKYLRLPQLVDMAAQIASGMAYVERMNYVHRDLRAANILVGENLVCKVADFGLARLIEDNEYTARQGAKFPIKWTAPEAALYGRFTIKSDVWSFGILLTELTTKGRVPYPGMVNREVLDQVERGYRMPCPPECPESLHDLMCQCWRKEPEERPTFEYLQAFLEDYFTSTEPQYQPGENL
row,IC50,Structure (SMILES)
1,89 µM,CC(=O)N[C@@H](Cc1ccc(OP(=O)(O)O)cc1)C(=O)N[C@@H](Cc1c[nH]c2ccccc12)c1nc(CCCC(C)C)no1
2,12 µM,CCCCCCc1cnc([C@H](CC)NC(=O)[C@H](Cc2ccc(OP(=O)(O)O)cc2)NC(C)=O)s1
3,36 µM,CCCCCc1noc([C@H](Cc2c[nH]c3ccccc23)NC(=O)[C@H](Cc2ccc(OP(=O)(O)O)cc2)NC(C)=O)n1
4,26 µM,CC(=O)N[C@@H](Cc1ccc(OP(=O)(O)O)cc1)C(=O)N[C@@H](CCC(=O)O)c1nc(CC2CCCCC2)cs1
5,65 µM,CCCCCc1noc([C@H](CC)NC(=O)[C@H](Cc2ccc(OP(=O)(O)O)cc2)NC(C)=O)n1
6,61 µM,CC(=O)N[C@@H](Cc1ccc(OP(=O)(O)O)cc1)C(=O)N[C@@H](CCC(=O)O)c1nc(CCC(C)C)no1
7,33 µM,CC(=O)N[C@@H](Cc1ccc(OP(=O)(O)O)cc1)C(=O)N[C@@H](Cc1c[nH]c2ccccc12)c1nc(CCC(C)C)no1
8,92 µM,CC(=O)N[C@@H](Cc1ccc(OP(=O)(O)O)cc1)C(=O)N[C@@H](CCC(=O)O)c1nc(Cc2ccccc2)no1
9,896 µM,CC(=O)N[C@@H](Cc1ccc(OP(=O)(O)O)cc1)C(=O)NCc1nc(CC2CCCCC2)no1
10,279 µM,CC(=O)N[C@@H](Cc1ccc(OP(=O)(O)O)cc1)C(=O)N[C@@H](Cc1c[nH]c2ccccc12)c1nc(Cc2cccc3ccccc23)no1
11,384 µM,CCCCc1noc([C@H](CCC(N)=O)NC(=O)[C@H](Cc2ccc(OP(=O)(O)O)cc2)NC(C)=O)n1
12,62 µM,CC(=O)N[C@@H](Cc1ccc(OP(=O)(O)O)cc1)C(=O)N[C@@H](Cc1c[nH]c2ccccc12)c1nc(CC2CCCCC2)no1
13,25 µM,CCCCCCc1noc([C@H](CC)NC(=O)[C@H](Cc2ccc(OP(=O)(O)O)cc2)NC(C)=O)n1
14,16 µM,CC(=O)N[C@@H](Cc1ccc(OP(=O)(O)O)cc1)C(=O)N[C@@H](CCC(=O)O)c1ncc(CC2CCCCC2)s1
15,218 µM,CC(=O)N[C@@H](Cc1ccc(OP(=O)(O)O)cc1)C(=O)N[C@@H](CCC(=O)O)c1nc(CC(C)C)cs1
16,320 µM,CC(=O)N[C@@H](Cc1ccc(OP(=O)(O)O)cc1)C(=O)N[C@@H](CCC(N)=O)c1nc(CCC(C)C)no1

row,IC50,Structure (SMILES)
1,166 µM,CC(=O)N[C@@H](Cc1ccc(OP(=O)(O)O)cc1)C(=O)N[C@@H](CCC(=O)O)c1nc(CC(C)C)no1
2,24 µM,CCCCCCc1noc([C@H](CCC(N)=O)NC(=O)[C@H](Cc2ccc(OP(=O)(O)O)cc2)NC(C)=O)n1
3,8 µM,CCCCCCc1noc([C@H](CCC(=O)O)NC(=O)[C@H](Cc2ccc(OP(=O)(O)O)cc2)NC(C)=O)n1
4,483 µM,CC(=O)N[C@@H](Cc1ccc(OP(=O)(O)O)cc1)C(=O)NCc1nc(CC2CCCCC2)cs1
5,29 µM,CC(=O)N[C@@H](Cc1ccc(OP(=O)(O)O)cc1)C(=O)N[C@@H](CCC(=O)O)c1nc(CC2CCCCC2)no1
6,111 µM,CC[C@H](NC(=O)[C@H](Cc1ccc(OP(=O)(O)O)cc1)NC(C)=O)c1nc(CCC(C)C)no1
7,7 µM,CCCCCCCc1noc([C@H](CCC(=O)O)NC(=O)[C@H](Cc2ccc(OP(=O)(O)O)cc2)NC(C)=O)n1
8,16 µM,CCCCCCc1noc([C@H](Cc2c[nH]c3ccccc23)NC(=O)[C@H](Cc2ccc(OP(=O)(O)O)cc2)NC(C)=O)n1
9,22 µM,CCCCCCCc1noc([C@H](CC)NC(=O)[C@H](Cc2ccc(OP(=O)(O)O)cc2)NC(C)=O)n1
10,35 µM,CCCCCCCc1noc([C@H](Cc2c[nH]c3ccccc23)NC(=O)[C@H](Cc2ccc(OP(=O)(O)O)cc2)NC(C)=O)n1
11,25 µM,CC(=O)N[C@@H](Cc1ccc(OP(=O)(O)O)cc1)C(=O)N[C@@H](Cc1c[nH]c2ccccc12)c1nc(Cc2ccccc2)no1
12,76 µM,CC(=O)N[C@@H](Cc1ccc(OP(=O)(O)O)cc1)C(=O)N[C@@H](CCC(=O)O)c1nc(CCC(C)C)cs1
13,14 µM,CCCCCCc1cnc([C@H](Cc2c[nH]c3ccccc23)NC(=O)[C@H](Cc2ccc(OP(=O)(O)O)cc2)NC(C)=O)s1
14,278 µM,CC(=O)N[C@@H](Cc1ccc(OP(=O)(O)O)cc1)C(=O)N[C@@H](CCC(N)=O)c1nc(CC2CCCCC2)no1
15,21 µM,CCCCCc1noc([C@H](CCC(=O)O)NC(=O)[C@H](Cc2ccc(OP(=O)(O)O)cc2)NC(C)=O)n1
